For 66 molecules, melting point results are on record in a melting point compilation (Tetko et al.; mined from patent text by program, amines drawn as free bases though some values may be those of a salt).

Usually melting point stands for the temperature of the solid-liquid transition.

Regarding `CC(C)C(CNC(=O)OCc1ccccc1)C(=O)O` (stereo unspecified), the melting point was 75.5 to 78.5 °C.

For `COC(=O)c1cccc(=O)n1C`, the melting point was in the range of 56 to 57 °C. The same measure for `NC(=O)c1cn(CC2CC2)c2ccccc12`: 170 °C; for `COc1ccc(C(=O)N2c3ccccc3C(N3CCCc4cc(NC(=O)OC(C)(C)C)ccc43)CC2C)cc1OC` (stereo unspecified): 192 to 193 °C. Molecule `COc1ccc(C2C3=C(COC3=O)Nc3ccc4nc(S)[nH]c4c32)cc1O` (stereo unspecified) registered a melting point of 334 to 337 °C. Take `Cc1cc(C(=O)N[C@@H]2CCc3cccc(N4CCN(C)CC4)c3C2)ccc1N1CCOCC1`: the melting point lay in the range of 172 to 175 °C. For the molecule `CCN(CC)C(=O)c1ccoc1-c1ccc2ccccc2c1`, the melting point fell in the range of 92 to 93 °C. The molecule `Cn1nnnc1-c1cn(C)c2cc(C(F)(F)F)ccc2c1=O` registered a melting point of 220 to 221 °C. With `Cc1oc(-c2ccccc2)nc1CCOc1ccc(C[C@@H](C(=O)O)N2CCN(c3cccc(Cl)c3)CC2)cc1`, the melting point is 138 to 139 °C.

In the case of `COC(=O)c1cc(-n2c(OC)nc(C(F)(F)F)cc2=O)c(F)cc1Cl`, the melting point is 115 to 117 °C. Consider `COc1cc(COc2cccc(CC(=O)O)c2-c2cccc(C(=O)O)c2)ccc1C12CC3CC(CC(C3)C1)C2`, for which the melting point lay within 240 to 242 °C. Next, `COc1ccc(-c2ocnc2-c2cc(OC)c(OC(F)(F)F)c(OC)c2)cc1N`: 168 to 170 °C; `CC1(C)CC(=O)C2(CCC(=O)O)CC1C2`: 90 to 93 °C. On to `COc1ccc(S(=O)(=O)C2(C(=O)O)CCN(CCCc3ccccc3)CC2)cc1`, for which the melting point was determined as 203 °C. For `CCC1Nc2cc(F)c(F)cc2-n2cccc21` (stereo unspecified), the melting point fell in the range of 67 to 69 °C. Molecule `COCCC(=O)c1cc(C(=O)OC)c(N)cc1C(F)(F)F` displayed a melting point of 89 to 91 °C.

With `COC(=O)c1ccc(-c2nc(-c3ccccc3)n(C)n2)cc1`, the melting point fell in the range of 167 to 168 °C. Regarding `O=c1[nH]c(-c2ccc(CCCCCl)cc2)cs1`, the melting point lay within 111 to 117 °C. On to `COc1cc(C2(C=O)C=CC=CC2)ccc1OCCCBr` (stereo unspecified), for which the melting point was in the range of 88 to 89 °C. Next, `CCCc1c(OCCCCCCc2ccc3cc(OC)c(OC)cc3c2)ccc(C(=O)O)c1O`: 102 to 104 °C; `CCOC(=O)C1(C(=O)Nc2cc(Cl)c(Cl)cc2C)CC1`: 105 to 107 °C; `COc1cc2c(Oc3cnc4[nH]ccc4c3)ncnc2cc1OCCCN1CCCC1`: 184 to 186 °C. `O=C(O)CCNC(=O)C=Cc1ccccc1` gave a melting point of 140 to 144 °C. Molecule `O=S(=O)(NC1CCCCC1)c1ccc(Cn2cnc3ccccc32)cc1` had a melting point of 192 to 193 °C. `COc1cccc2c(Nc3cccc(N(C)C)c3)c(C#N)cnc12`: the melting point is 222 to 225 °C. `CCCCCC(=S)SCCC` came in with a melting point of 55 to 56 °C. With `CC(=O)CNC(=O)c1cc2c(nc(C)n2C)c2c1CCC1(Cc3ccccc3C1)N2`, the melting point was in the range of 222 to 223 °C. The same measure for `COc1c(CN2CCNC2=C[N+](=O)[O-])cc(C)nc1[N+](=O)[O-]`: 177 to 181 °C; for `Oc1cnc(-c2ccccc2)c(F)c1`: 150 to 151 °C. The same measure for `O=C(NC1CN(C(C(=O)O)c2ccc(OC(=O)c3ccccc3)cc2)C1=O)C(=NOC(=O)c1ccccc1)c1ccccc1` (stereo unspecified): 119 to 123 °C; for `O=C(NC1CCC(CCN2CCN(c3nccc4c3CCO4)CC2)CC1)C(O)C(F)(F)F` (racemic): 204 °C; for `N#CCn1nnc2cc3c(cc2c1=O)OC1CCCN1C3=O` (stereo unspecified): 210 to 212 °C. On to `CC(C)n1cnc2c(Nc3ccncc3)nc(F)nc21`, for which the melting point was 105 to 106 °C. The same measure for `CCCCSc1nnc(N(C)C(=O)NC)s1`: 135 to 137 °C; for `Cc1cc(Oc2ccc(Cl)c(C(F)(F)F)c2)c(C)cc1N=CNC#N`: 111 to 114 °C; for `CC(C)(C)SN1C(=O)NC(=O)C1=O`: 150 to 152 °C. In turn, `CCCc1nc(C)n2nc(N)nc2c1Cc1ccc(-c2ccccc2C#N)cc1` returned a melting point of 150 °C. `COC12C=CC(CC1)CC2C(=O)O` (stereo unspecified) had a melting point of 77 to 81 °C. Next, `COc1ccc(CCNC(=O)OC(C)(C)C)cc1O`: 100 to 101 °C; `O=C1NCCn2c1c(-c1ccccc1)c1ccccc1c2=O`: above 300 °C.

Molecule `CC(C)n1nc(-c2cc(C(=O)NCCO)cnc2-c2ccccc2)ccc1=O` yielded a melting point of 165 to 167 °C. The same measure for `CC(=O)Nc1cccc(OC(Cn2ccnc2)c2ccc(Cl)cc2Cl)c1` (stereo unspecified): 108 to 112 °C; for `COc1cc(N)c2nccc(C)c2c1F`: 126 to 128 °C. The molecule `CCCCCCCCCC[C@@H]1C(=O)OC(C)=C[C@@H]1C(=O)OC` gave a melting point of 40 to 42 °C. Take `COc1ccc2c(c1)C(C)(CC(=O)O)C(=O)N2C` (stereo unspecified): the melting point was in the range of 120 to 121 °C. Regarding `CCOC(=O)CNS(=O)(=O)c1ccc(N2CCC(NC[C@H](O)c3ccc(O)c(NS(C)(=O)=O)c3)CC2)cc1`, the melting point was in the range of 105 to 107 °C. Consider `Cc1c(CN(C)C)cc(C(C)(C)C)c(O)c1C`, for which the melting point lay in the range of 101 to 104 °C. In turn, `O=C1c2ccccc2C(=O)N1CSc1ccccn1` showed a melting point of 93 to 94 °C. `COc1ccc(N2Cc3ccccc3P2(C)=O)cc1` (stereo unspecified) showed a melting point of 148 to 150 °C. `CCNc1ccc(S(=O)c2ccccc2)cc1N` (stereo unspecified) showed a melting point of 140 to 142 °C.

With `O=CNC(CC(=O)O)c1ccccc1` (stereo unspecified), the melting point was 135 to 136 °C.

`NS(=O)(=O)c1cccc(-c2noc(-c3cnc4ccc(-c5ccc(C(F)(F)F)cc5)cn34)n2)c1` had a melting point of 288 °C. Next, `Oc1cc(-c2ccccc2)nc2ccc(Cl)cc12`: above 350 °C; `CCCCn1c(-c2ccc(Cl)c(S(=O)(=O)N(C)C)c2)csc1=Nc1ccccc1C`: 104 °C; `CCC(=O)Nc1cc(C(=O)O)ccc1N1C(=O)CCC1(CO)CO`: 217 to 218 °C.

`O=[N+]([O-])CS(=O)(=O)c1ccc(CO)cc1` gave a melting point of 73 to 75 °C.

`CC1=NCN2C1=Cc1cncnc1-c1cccc(C(=O)O)c12` had a melting point of 285 to 287 °C.

Consider `COc1cc(OC)cc(N2CCN(C(=O)Nc3cc(C(C)(C)O)c(C)nc3OC)CC2)c1`, for which the melting point was 146 to 148 °C. In turn, `O=Cc1cccc(C=Cc2ccccc2)c1` showed a melting point of 90 °C. As for `CC1(C)OC(=O)Nc2ccc(-c3cc(C#N)ccc3F)cc21`, the melting point was in the range of 229 to 230 °C. In turn, `CC(=O)OC1CSC(Oc2cccc(-c3c(C)noc3C)c2)C(OC(C)=O)C1OC(C)=O` (stereo unspecified) displayed a melting point of 167 to 169 °C. As to `Ic1ccc2c(c1)Sc1ccc(I)cc1S2`, the melting point was 169 to 170 °C.

Molecule `COc1ccc(Nc2cc(-c3ccccc3)nc3ccccc23)cc1Cl` showed a melting point of 272 to 274 °C. `O=C(CNc1ccc2[nH]c(=O)[nH]c2c1)N1CCC(Cc2ccc(F)cc2)CC1`: the melting point fell in the range of 85 to 87 °C. As for `COCn1nnc(NC(=O)C2c3ccccc3Oc3ccccc32)n1`, the melting point lay within 221 to 222 °C.

The molecule `CC(C)OC(=O)CCc1ccc(-n2ccn(-c3ccc(C(=N)N)cc3)c2=O)cc1` gave a melting point above 250 °C.
